Test results: patent publication US20200164038A1, “MODIFIED NUCLEOSIDE, NUCLEOTIDE, AND NUCLEIC ACID COMPOSITIONS” (ModernaTX, Inc., priority 2011, published 2020)
Read-outs that look alike come from different tables or passages of the source.

Legend:
[1] = test system: Factor IX; assay: Factor IX mRNA transfected in serum-free media, peptide detection by MALDI; format: cell-based, human; conditions: 8 peptides detected, 7 unique to Factor IX
Text: The cell culture supernatant was collected and subjected to trypsin digestion before undergoing 2-dimensional HPLC separation of the peptides Matrix-assisted laser desorption/ionization was used to detect the peptides. 8 peptides were detected and 7 of the detected peptides are unique to Factor IX.

[2] = for Serum Concentration 8-12 hours after administration: Factor IX; for Factor IX Protein Expression, Conc: mice IV, serum 8 hrs
[3] = In vivo study of Factor IX mmRNA IM, serum Factor IX; conditions: mice IM, 2×100 ug/mouse in formulation buffer, 13 hours
Experimental: Human Factor IX mmRNA (Gen1; fully modified 5-methylcytosine and pseudouridine) formulated in formulation buffer was delivered to mice via intramuscular injection.
The mice were bled at 13 hours after the intramuscular injection to determine the concentration of human the polypeptide in serum in pg/mL.

[4] = Intramuscular delivery of human EPO mRNA in buffer, serum human EPO; format: in vivo, Sprague-Dawley rats; conditions: rats, 100 μg, 13 hours
Experimental: (§1) Mice were intramuscularly or subcutaneously injected with 50 μl of the modified human EPO mRNA (h-EPO), modified luciferase mRNA (Luc) or the formulation buffer (F.Buffer) as described in the dosing chart Table 58. 13 hours post injection blood was collected and serum was analyzed to determine the amount human EPO for each mouse or rat.

[5] = Intramuscular and subcutaneous delivery of human EPO mRNA in buffer, serum human EPO; format: in vivo, C57/BL6 mice; conditions: mice, 100 μg, 13 hours
Experimental: as §1

[6] = Duration of activity after intramuscular delivery, serum human EPO; format: in vivo, Sprague-Dawley rats; conditions: rats, 100 μg, 24, 48 and 72 hour
Experimental: The rats were bled 2, 6, 12, 24, 48 and 72 hours after the intramuscular injection to determine the concentration of human EPO in serum at a given time.

[7] = Human G-CSF modified RNA lipoplex comparison I.M., S.C., G-CSF ELISA 13 hours; format: in vivo, C57/BL6 mice; conditions: mice I.M. or S.C., 100 μg, saline or lipoplex
Experimental: A formulation containing 100 μg of either modified human G-CSF mRNA lipoplexed with 30% by volume of RNAIMAX™ with a 5-methylcytosine (5mc) and a pseudouridine (ψ) modification (G-CSF-Gen1-Lipoplex), modified human G-CSF mRNA with a 5mc and ψ modification in saline (G-CSF-Gen1-Saline), modified human G-CSF mRNA with a N1-5-methylcytosine (N1-5mc) and a ψ modification lipoplexed with 30% by volume of RNAIMAX™ (G-CSF-Gen2-Lipoplex), modified human G-CSF mRNA with a N1-5mc and ψ modification in saline (G-CSF-Gen2-Saline), modified luciferase with a 5mc and ψ modification lipoplexed with 30% by volume of RNAIMAX™ (Luc-Lipoplex), or modified luciferase mRNA with a 5mc and ψ modification in saline (Luc-Saline) was delivered intramuscularly (I.M.) or subcutaneously (S.C.) and a control group for each method of administration was giving a dose of 80 uL of the formulation buffer (F. Buffer) to C57/BL6 mice. 13 hours post injection serum and tissue from the site of injection were collected from each mouse and analyzed by G-CSF ELISA to compare human G-CSF protein levels. The results of the human G-CSF protein in mouse serum from the intramuscular administration and the subcutaneous administration results are shown in Table 55.

[8] = test system: IFN-alpha; assay: Cytokine study PBMC, IFN-alpha production ELISA; format: cell-based; conditions: human PBMC, Lipofectamine 2000
Experimental: The plates were then incubated at 37 C.
Each condition was done in duplicate
Shown in Tables 69 and 70 are the average from 2 separate PBMC donors of the G-CSF and IFN-alpha production over time as measured by specific ELISA.

[9] = test system: peripheral blood mononuclear cells (PBMC); assay: In vitro PBMC study, percent modification: IFN-alpha and TNF-alpha by ELISA, PC ratio; format: cell-based, human
Experimental: The supernatant was harvested and run by ELISA 22 hours after transfection to determine the protein expression.

[10] = test system: peripheral blood mononuclear cells (PBMC); format: cell-based, human
Experimental: (§2) 500 ng of G-CSF mRNA modified with 5-methylcytosine (5mC) and pseudouridine (pseudoU) or unmodified G-CSF mRNA was transfected with 0.4 uL of Lipofectamine 2000 into peripheral blood mononuclear cells (PBMC) from three normal blood donors (D1, D2, and D3). […] The supernatant was harvested 6 hours and 18 hours after transfection and run by ELISA to determine the protein expression. The expression of G-CSF, IFN-alpha, and TNF-alpha for Donor 1 is shown in Table 86, Donor 2 is shown in Table 87 and Donor 3 is shown in Table 88.

[11] = test system: peripheral blood mononuclear cells (PBMC); assay: Modified RNA transfected in PBMC: G-CSF by ELISA at 6 and 18 hours; format: cell-based, human; conditions: Donor 2, 18 hours
Experimental: as §2

[12] = test system: neutrophil count; assay: Intravenous administration of lipoplexed G-CSF mRNA, neutrophil count; format: in vivo; conditions: mice IV, 50 ug RNA in 10% lipoplex at days 0, 2 and 4; day 5
Experimental: Neutrophils were measured at days 1, 5 and 8. Controls included non-specific mammalian RNA or the formulation buffer alone (F.Buffer). The mice were bled at days 1, 5 and 8 to determine the effect of mRNA-encoded human G-CSF to increase neutrophil count. The dosing regimen is shown in Table 64 as are the resulting neutrophil counts (thousands/uL; K/uL).

## Factor IX Gen 1: Factor IX mRNA SEQ ID NO 10, Cap1, fully modified with 5-methylcytosine and pseudouridine
[1]
  expression of Factor IX protein: able to express full-length Factor IX protein

## Factor IX: human Factor IX mRNA, SEQ ID NO: 10, polyA about 160 nt, Cap1, fully modified with 5-methylcytosine and pseudouridine
[2]; IM, 2 × 100 ug
  Serum Concentration 8-12 hours after administration: ~1.6 ng/mL
[2]; IV (LNP), 1 ug
  Serum Concentration 8-12 hours after administration: ~40 ng/mL
[2]; IV (LNP), 10 ug
  Serum Concentration 8-12 hours after administration: ~400 ng/mL
[2]; IV (LNP), 100 ug
  Serum Concentration 8-12 hours after administration: ~3,000-10,000 ng/ml
[2]; LNP NPA-029-1, 10 ug
  Factor IX Protein Expression, Conc: ~380 ng/mL
[2]; LNP NPA-029-1, 100 ug
  Factor IX Protein Expression, Conc: 3000 to 11000 ng/mL
[3]
  concentration of Factor IX in serum: 1600 pg/mL

## Luc
[4]
  human EPO in serum, Avg.: 24.5 pg/mL
  human EPO in serum, Geometric-mean: 22.4 pg/mL
[5]; IM
  human EPO Average Level in serum: 0 pg/mL
[5]; SC
  human EPO Average Level in serum: 26.7 pg/mL
[6]
  human EPO in serum, Avg.: 37.2 pg/mL
  human EPO in serum, Geometric-mean: 29.2 pg/mL

B1: Gen2 G-CSF mmRNA: human G-CSF mRNA, SEQ ID NO: 6, modified with 5-methylcytidine and N1-methylpseudouridine (nucleic acid, listed as Homo sapiens)
chain: GGGAAAUAAGAGAGAAAAGAAGAGUAAGAAGAAAUAUAAGAGCCACCAUGGCCGGUCCCGCGACCCAAAGCCCCAUGAAACUUAUGGCCCUGCAGUUGCUGCUUUGGCACUCGGCCCUCUGGACAGUCCAAGAAGCGACUCCUCUCGGACCUGCCUCAUCGUUGCCGCAGUCAUUCCUUUUGAAGUGUCUGGAGCAGGUGCGAAAGAUUCAGGGCGAUGGAGCCGCACUCCAAGAGAAGCUCUGCGCGACAUACAAACUUUGCCAUCCCGAGGAGCUCGUACUGCUCGGGCACAGCUUGGGGAUUCCCUGGGCUCCUCUCUCGUCCUGUCCGUCGCAGGCUUUGCAGUUGGCAGGGUGCCUUUCCCAGCUCCACUCCGGUUUGUUCUUGUAUCAGGGACUGCUGCAAGCCCUUGAGGGAAUCUCGCCAGAAUUGGGCCCGACGCUGGACACGUUGCAGCUCGACGUGGCGGAUUUCGCAACAACCAUCUGGCAGCAGAUGGAGGAACUGGGGAUGGCACCCGCGCUGCAGCCCACGCAGGGGGCAAUGCCGGCCUUUGCGUCCGCGUUUCAGCGCAGGGCGGGUGGAGUCCUCGUAGCGAGCCACCUUCAAUCAUUUUUGGAAGUCUCGUACCGGGUGCUGAGACAUCUUGCGCAGCCGUGAAGCGCUGCCUUCUGCGGGGCUUGCCUUCUGGCCAUGCCCUUCUUCUCUCCCUUGCACCUGUACCUCUUGGUCUUUGAAUAAAGCCUGAGUAGGAAG
modifications: 5-methylcytidine and N1-methylpseudouridine modified
[7]
  human G-CSF protein production relative to 5-methylcytosine/pseudouridine modified human G-CSF mRNA: increased human G-CSF protein production
[8]
  innate immune recognition, cytokines (IFN-alpha): did not significantly increase cytokines

B2: 100% modification: G-CSF mRNA (SEQ ID NO 6, Cap1) completely modified with 5mC and pseudoU (nucleic acid, listed as Homo sapiens)
chain: GGGAAAUAAGAGAGAAAAGAAGAGUAAGAAGAAAUAUAAGAGCCACCAUGGCCGGUCCCGCGACCCAAAGCCCCAUGAAACUUAUGGCCCUGCAGUUGCUGCUUUGGCACUCGGCCCUCUGGACAGUCCAAGAAGCGACUCCUCUCGGACCUGCCUCAUCGUUGCCGCAGUCAUUCCUUUUGAAGUGUCUGGAGCAGGUGCGAAAGAUUCAGGGCGAUGGAGCCGCACUCCAAGAGAAGCUCUGCGCGACAUACAAACUUUGCCAUCCCGAGGAGCUCGUACUGCUCGGGCACAGCUUGGGGAUUCCCUGGGCUCCUCUCUCGUCCUGUCCGUCGCAGGCUUUGCAGUUGGCAGGGUGCCUUUCCCAGCUCCACUCCGGUUUGUUCUUGUAUCAGGGACUGCUGCAAGCCCUUGAGGGAAUCUCGCCAGAAUUGGGCCCGACGCUGGACACGUUGCAGCUCGACGUGGCGGAUUUCGCAACAACCAUCUGGCAGCAGAUGGAGGAACUGGGGAUGGCACCCGCGCUGCAGCCCACGCAGGGGGCAAUGCCGGCCUUUGCGUCCGCGUUUCAGCGCAGGGCGGGUGGAGUCCUCGUAGCGAGCCACCUUCAAUCAUUUUUGGAAGUCUCGUACCGGGUGCUGAGACAUCUUGCGCAGCCGUGAAGCGCUGCCUUCUGCGGGGCUUGCCUUCUGGCCAUGCCCUUCUUCUCUCCCUUGCACCUGUACCUCUUGGUCUUUGAAUAAAGCCUGAGUAGGAAG
modifications: Cap1; 5-methylcytidine, pseudouridine
[9]
  TNF-alpha Expression: 11.1 pg/mL
  better ratio of protein/cytokine production than natural G-CSF mRNA, IFN-alpha: 100 fold
  better ratio of protein/cytokine production than natural G-CSF mRNA, TNF-alpha: 27 fold
[10]
  IFN-alpha: 1 pg/mL
[11]
  G-CSF: 432 pg/mL

B3: Unmodified G-CSF mRNA: human G-CSF mRNA, SEQ ID NO: 6, having no modifications (natural NTPs) (nucleic acid, listed as Homo sapiens)
chain: GGGAAAUAAGAGAGAAAAGAAGAGUAAGAAGAAAUAUAAGAGCCACCAUGGCCGGUCCCGCGACCCAAAGCCCCAUGAAACUUAUGGCCCUGCAGUUGCUGCUUUGGCACUCGGCCCUCUGGACAGUCCAAGAAGCGACUCCUCUCGGACCUGCCUCAUCGUUGCCGCAGUCAUUCCUUUUGAAGUGUCUGGAGCAGGUGCGAAAGAUUCAGGGCGAUGGAGCCGCACUCCAAGAGAAGCUCUGCGCGACAUACAAACUUUGCCAUCCCGAGGAGCUCGUACUGCUCGGGCACAGCUUGGGGAUUCCCUGGGCUCCUCUCUCGUCCUGUCCGUCGCAGGCUUUGCAGUUGGCAGGGUGCCUUUCCCAGCUCCACUCCGGUUUGUUCUUGUAUCAGGGACUGCUGCAAGCCCUUGAGGGAAUCUCGCCAGAAUUGGGCCCGACGCUGGACACGUUGCAGCUCGACGUGGCGGAUUUCGCAACAACCAUCUGGCAGCAGAUGGAGGAACUGGGGAUGGCACCCGCGCUGCAGCCCACGCAGGGGGCAAUGCCGGCCUUUGCGUCCGCGUUUCAGCGCAGGGCGGGUGGAGUCCUCGUAGCGAGCCACCUUCAAUCAUUUUUGGAAGUCUCGUACCGGGUGCUGAGACAUCUUGCGCAGCCGUGAAGCGCUGCCUUCUGCGGGGCUUGCCUUCUGGCCAUGCCCUUCUUCUCUCCCUUGCACCUGUACCUCUUGGUCUUUGAAUAAAGCCUGAGUAGGAAG
[12]
  increase in neutrophil count above control: no pharmacologic effect on neutrophil counts
